# Reference: US8969389B2, “Substituted 6-methylnicotinamides as mGluR5 positive allosteric modulators” (Vanderbilt University, priority 2010, dated 2015)
# Target: T1, human mGluR5 (Homo sapiens, UniProt P41594)
# T1 construct: expressed in transfected cells; host or cells: HEK cells, H10H cell line
# Assay: Potentiation of glutamate response in HEK cells transfected with human mGluR5 (H10H cell line), Ca2+ fluorescence, FDSS
# Format: cell-based
# Settings: read-out: hmGluR5 EC50 (H10H cell line)
# Description: (§1) Human embryonic kidney (HEK) cells transfected with rat mGluR5 were plated in clear bottom assay plates for assay in a Functional Drug Screening System (FDSS). In the alternative assay, HEK cells transfected with human mGluR5 (H10H cell line) were plated for assay in the FDSS. […] The cells were loaded with a Ca^2+-sensitive fluorescent dye (e.g., Fluo-4), and the plates were washed and placed in the FDSS instrument. After establishment of a fluorescence baseline for twelve seconds, the compounds of the present invention were added to the cells, and the response in cells was measured. Five minutes later, an mGluR5 agonist (e.g., glutamate, 3,5-dihydroxyphenylglycine, or quisqualate) was added to the cells, and the response of the cells was measured. Potentiation of the agonist response of mGluR5 by the compounds in the present invention was observed as an increase in response to non-maximal concentrations of agonist (here, glutamate) in the presence of compound compared to the response to agonist in the absence of compound.
# (§2) The above described assay operated in two modes. In the first mode, a range of concentrations of the present compounds were added to cells, followed by a single fixed concentration of agonist. If a compound acted as a potentiator, an EC50 value for potentiation and a maximum extent of potentiation by the compound at this concentration of agonist was determined by non-linear curve fitting. In the second mode, several fixed concentrations of the present compounds were added to various wells on a plate, followed by a range of concentrations of agonist for each concentration of present compound; the EC50 values for the agonist at each concentration of compound were determined by non-linear curve fitting. A decrease in the EC50 value of the agonist with increasing concentrations of the present compounds (a leftward shift of the agonist concentration-response curve) is an indication of the degree of mGluR5 potentiation at a given concentration of the present compound. An increase in the EC50 value of the agonist with increasing concentrations of the present compounds (a rightward shift of the agonist concentration-response curve) is an indication of the degree of mGluR5 antagonism at a given concentration of the present compound. The second mode also indicates whether the present compounds also affect the maximum response to mGluR5 to agonists.
# T1 sequence (P41594 21-1212): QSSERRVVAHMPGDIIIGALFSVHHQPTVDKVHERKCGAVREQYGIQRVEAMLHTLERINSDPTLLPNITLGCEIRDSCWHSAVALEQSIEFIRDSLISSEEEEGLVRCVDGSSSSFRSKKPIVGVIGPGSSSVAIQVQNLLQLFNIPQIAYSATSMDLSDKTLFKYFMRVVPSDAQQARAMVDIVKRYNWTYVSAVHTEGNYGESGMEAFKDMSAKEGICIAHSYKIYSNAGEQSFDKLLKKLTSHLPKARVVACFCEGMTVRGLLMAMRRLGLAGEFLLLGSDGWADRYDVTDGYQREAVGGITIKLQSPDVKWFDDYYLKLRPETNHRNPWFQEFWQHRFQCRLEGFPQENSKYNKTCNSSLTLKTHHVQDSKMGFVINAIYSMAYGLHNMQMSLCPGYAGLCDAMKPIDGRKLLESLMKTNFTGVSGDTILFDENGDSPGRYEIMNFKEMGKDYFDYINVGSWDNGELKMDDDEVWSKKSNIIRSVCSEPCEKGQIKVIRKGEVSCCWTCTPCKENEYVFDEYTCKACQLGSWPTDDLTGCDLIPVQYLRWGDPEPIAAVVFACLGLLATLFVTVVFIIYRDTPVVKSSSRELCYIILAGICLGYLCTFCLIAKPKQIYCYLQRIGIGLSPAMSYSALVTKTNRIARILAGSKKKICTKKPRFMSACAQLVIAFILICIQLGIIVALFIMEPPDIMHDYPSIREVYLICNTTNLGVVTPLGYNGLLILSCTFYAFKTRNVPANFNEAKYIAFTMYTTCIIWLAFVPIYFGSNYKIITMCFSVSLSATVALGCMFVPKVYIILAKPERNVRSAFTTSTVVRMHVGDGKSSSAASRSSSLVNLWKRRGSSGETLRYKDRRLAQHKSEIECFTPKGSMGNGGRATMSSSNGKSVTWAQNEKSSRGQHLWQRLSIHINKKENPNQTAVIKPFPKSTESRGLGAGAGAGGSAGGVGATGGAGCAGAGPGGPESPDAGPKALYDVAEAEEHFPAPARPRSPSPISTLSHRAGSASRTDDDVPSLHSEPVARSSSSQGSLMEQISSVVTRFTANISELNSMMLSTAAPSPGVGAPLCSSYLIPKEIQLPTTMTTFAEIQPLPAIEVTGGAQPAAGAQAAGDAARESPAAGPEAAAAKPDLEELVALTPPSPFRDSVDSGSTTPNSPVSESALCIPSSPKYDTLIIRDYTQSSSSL
row,SMILES,EC50
1,O=C(N[C@H]1C[C@@H]2CC[C@H]1C2)c1ccc(COc2cccc(F)c2)nc1,0.55 µM
2,CC(NC(=O)c1ccc(COc2cccc(F)c2)nc1)C1CCCOC1 (stereo not drawn),0.44 µM
3,O=C(N[C@@H]1C[C@@H]2CC[C@H]1C2)c1ccc(COc2cccc(F)c2)nc1,> 10 µM
4,C[C@@H](NC(=O)c1ccc(COc2cncc(Cl)c2)nc1)C(C)(C)C,> 10 µM
5,C[C@@H](NC(=O)c1ccc(COc2ccnc(Cl)c2)nc1)C(C)(C)C,2.3 µM
6,C[C@@H](NC(=O)c1ccc(COc2cncc(F)c2)nc1)C(C)(C)C,> 10 µM
7,CC1(CNC(=O)c2ccc(COc3cccc(F)c3)nc2)COC1,> 10 µM
8,O=C(NC1(c2ccccn2)CC1)c1ccc(COc2cccc(F)c2)nc1,> 10 µM
9,O=C(NC1CC(O)(C(F)(F)F)C1)c1ccc(COc2cccc(F)c2)nc1 (stereo not drawn) [drawing 173],> 10 µM
10,O=C(N[C@H]1C[C@H]2CC[C@@H]1C2)c1ccc(COc2cccc(F)c2)nc1,0.73 µM
11,C[C@@H](N(C)C(=O)c1ccc(COc2cccc(F)c2)nc1)C(C)(C)C,> 10 µM

# Next, values leading:
row,EC50,SMILES
1,> 10 µM,C[C@@H](NC(=O)c1ccc(COc2cncc(C(F)(F)F)c2)nc1)C1CCCCC1
2,> 10 µM,C[C@H](NC(=O)c1ccc(COc2cccc(F)c2)nc1)C(C)(C)C [drawing 189]
3,> 10 µM,Cc1cc(OCc2ccc(C(=O)N[C@H](C)C(C)(C)C)cn2)ccn1
4,> 10 µM,C[C@@H](NC(=O)c1ccc(COc2cncc(C(F)(F)F)c2)nc1)C(C)(C)C
5,2.7 µM,C[C@@H](NC(=O)c1ccc(COc2cncc(F)c2)nc1)C1CCCCC1
6,> 10 µM,O=C(NC(c1ccc(F)cc1)C(F)(F)F)c1ccc(COc2cccc(F)c2)nc1 (stereo not drawn)
7,0.17 µM,O=C(N[C@@H]1C[C@H]2CC[C@@H]1C2)c1ccc(COc2cccc(F)c2)nc1
8,> 10 µM,C[C@@H](NC(=O)c1ccc(COc2cncnc2)nc1)C(C)(C)C
9,> 10 µM,C[C@@H](NC(=O)c1ccc(COc2cncc(Cl)c2)nc1)C1CCCCC1

# Target: T2, rat mGluR5 (Rattus norvegicus, UniProt P31424)
# T2 construct: expressed in transfected cells; host or cells: HEK (human embryonic kidney) cells
# T2 sequence (P31424 21-1203): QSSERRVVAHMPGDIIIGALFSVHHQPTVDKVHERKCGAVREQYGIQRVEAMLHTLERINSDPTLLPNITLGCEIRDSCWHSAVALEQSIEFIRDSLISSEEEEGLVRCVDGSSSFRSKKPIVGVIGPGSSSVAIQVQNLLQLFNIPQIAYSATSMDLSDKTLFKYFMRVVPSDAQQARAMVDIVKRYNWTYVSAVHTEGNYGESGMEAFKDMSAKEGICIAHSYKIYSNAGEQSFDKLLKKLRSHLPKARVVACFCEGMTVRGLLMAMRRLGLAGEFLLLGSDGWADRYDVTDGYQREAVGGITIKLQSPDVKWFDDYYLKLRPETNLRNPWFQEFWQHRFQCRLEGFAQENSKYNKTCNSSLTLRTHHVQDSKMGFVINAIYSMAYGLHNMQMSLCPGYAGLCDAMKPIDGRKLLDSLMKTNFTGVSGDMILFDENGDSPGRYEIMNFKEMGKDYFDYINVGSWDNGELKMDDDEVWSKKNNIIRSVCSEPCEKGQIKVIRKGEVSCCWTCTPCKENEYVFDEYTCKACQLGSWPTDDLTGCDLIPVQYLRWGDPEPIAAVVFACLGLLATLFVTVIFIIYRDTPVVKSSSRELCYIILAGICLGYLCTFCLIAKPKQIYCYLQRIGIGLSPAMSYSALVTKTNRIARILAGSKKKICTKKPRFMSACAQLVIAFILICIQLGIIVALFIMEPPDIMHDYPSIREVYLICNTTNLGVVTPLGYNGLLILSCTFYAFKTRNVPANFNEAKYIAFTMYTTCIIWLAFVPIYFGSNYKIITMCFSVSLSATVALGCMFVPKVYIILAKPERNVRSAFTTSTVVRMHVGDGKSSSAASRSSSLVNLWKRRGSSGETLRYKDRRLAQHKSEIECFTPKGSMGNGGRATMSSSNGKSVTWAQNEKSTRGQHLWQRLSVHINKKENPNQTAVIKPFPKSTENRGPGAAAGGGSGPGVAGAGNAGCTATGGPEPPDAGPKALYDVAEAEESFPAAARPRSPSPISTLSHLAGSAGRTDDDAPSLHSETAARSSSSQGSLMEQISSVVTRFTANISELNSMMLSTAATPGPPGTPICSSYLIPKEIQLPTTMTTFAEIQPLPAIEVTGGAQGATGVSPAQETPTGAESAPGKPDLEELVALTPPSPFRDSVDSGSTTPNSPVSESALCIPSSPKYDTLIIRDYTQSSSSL
# Assay: Potentiation of glutamate response in HEK cells transfected with rat mGluR5 (Ca2+ fluorescence, FDSS)
# Format: cell-based
# Settings: (R) and (S) enantiomers, Tables 3A/3B; read-out: mGluR5 EC50
# Description: as §1, §2
row,EC50,SMILES
1,0.13 µM,"C[C@@H](NC(=O)c1ccc(COc2cccc(F)c2)nc1)C1CCCCC1 [Example 11a, (R)-N-(1-cyclohexylethyl)-6-((3-fluorophenoxy)methyl)nicotinamide]"
2,0.081 µM,"C[C@@H](NC(=O)c1ccc(COc2cccc(F)c2)nc1)C(C)(C)C [Example 13a, (R)-N-(3,3-dimethylbutan-2-yl)-6-((3-fluorophenoxy)methyl)nicotinamide]"
3,> 10 µM,"C[C@H](NC(=O)c1ccc(COc2cccc(F)c2)nc1)C1CCCCC1 [Example 11b, (S)-N-(1-cyclohexylethyl)-6-((3-fluorophenoxy)methyl)nicotinamide]"

# Same assay, conditions: HEK cells transfected with rat mGluR5; read-out: rmGlu5 PAM EC50
row,SMILES,EC50
1,CC(C)(C)CCNC(=O)c1ccc(COc2cccc(F)c2)nc1,0.302 µM
2,O=C(Nc1cccc(F)c1F)c1ccc(COc2ccccc2)nc1,> 10 µM
3,O=C(Nc1ccc(Cl)cc1F)c1ccc(COc2ccccc2)nc1,> 10 µM
4,O=C(NC1C2CC3CC(C2)CC1C3)c1ccc(COc2ccccc2)nc1 (stereo not drawn),0.288 µM
5,COCCCNC(=O)c1ccc(COc2ccccc2)nc1,> 10 µM
6,C[C@H](NC(=O)c1ccc(COc2cccc(F)c2)nc1)C1CCCCC1 [drawing 152],> 10 µM
7,COc1cccc(OCc2ccc(C(=O)N[C@H](C)C3CCCCC3)cn2)c1,1.2 µM
8,O=C(NC1CCC1)c1ccc(COc2cccc(F)c2)nc1,3.47 µM
9,C[C@H](NC(=O)c1ccc(COc2cc(F)cc(F)c2)nc1)C1CCCCC1 [drawing 149],> 10 µM
10,C[C@@H](NC(=O)c1ccc(COc2ccccc2)nc1)C1CCCCC1 [drawing 69],0.146 µM
11,O=C(Nc1cccc(Cl)c1)c1ccc(COc2ccccc2)nc1,> 10 µM
12,C[C@H](NC(=O)c1ccc(COc2cc(F)cc(C#N)c2)nc1)C1CCCCC1,> 10 µM
13,O=C(Nc1ccc(Cl)cc1)c1ccc(COc2ccccc2)nc1,> 10 µM
14,CC(C)NC(=O)c1ccc(COc2ccccc2)nc1,> 10 µM
15,C[C@@H](NC(=O)c1ccc(COc2cccc(F)c2)nc1)C(C)(C)C [drawing 65],0.0813 µM
16,O=C(Nc1ccccc1F)c1ccc(COc2ccccc2)nc1,0.501 µM

row,SMILES,EC50
1,C[C@H](NC(=O)c1ccc(COc2ccccc2)nc1)C1CCCCC1,2.88 µM
2,C[C@@H](NC(=O)c1ccc(COc2ccccc2Cl)nc1)C1CCCCC1,> 10 µM
3,CN(C)CCCNC(=O)c1ccc(COc2ccccc2)nc1,> 10 µM
4,C[C@@H](NC(=O)c1ccc(COc2cccc(C#N)c2)nc1)C1CCCCC1,0.22 µM
5,O=C(Nc1ccc(F)cc1)c1ccc(COc2ccccc2)nc1,> 10 µM
6,CC(C)CNC(=O)c1ccc(COc2ccccc2)nc1,1.7 µM
7,C[C@@H](NC(=O)c1ccc(COc2ccccc2)nc1)C1CCCCC1 [drawing 78],0.257 µM
8,O=C(NC1(c2ccccc2)CCC1)c1ccc(COc2cccc(F)c2)nc1,0.912 µM
9,O=C(NCCc1ccccn1)c1ccc(COc2ccccc2)nc1,> 10 µM
10,O=C(Nc1nccs1)c1ccc(COc2ccccc2)nc1,1.2 µM
11,O=C(Nc1ccc(Cl)cn1)c1ccc(COc2ccccc2)nc1,> 10 µM
12,O=C(NC1(c2ccccc2)CCC1)c1ccc(COc2cc(F)cc(F)c2)nc1,> 10 µM
13,O=C(NCc1ccccn1)c1ccc(COc2ccccc2)nc1,> 10 µM
14,O=C(NC1(c2ccccc2)CCC1)c1ccc(COc2ccccc2)nc1,> 10 µM
15,CC1(C)CC(CNC(=O)c2ccc(COc3cccc(F)c3)nc2)CCO1 (stereo not drawn),> 10 µM

# Results, then the compound that gave them:
row,EC50,SMILES
1,0.138 µM,C[C@@H](NC(=O)c1ccc(COc2cccc(F)c2)nc1)C1CCC1
2,1.26 µM,O=C(NC(C1CC1)C1CC1)c1ccc(COc2cccc(F)c2)nc1
3,> 10 µM,COCCNC(=O)c1ccc(COc2ccccc2)nc1
4,0.21 µM,C[C@@H](NC(=O)c1ccc(COc2cccc(Cl)c2)nc1)C1CCCCC1
5,0.17 µM,C[C@@H](NC(=O)c1ccc(COc2cccc(F)c2)nc1)C1CCCCC1 [drawing 73]
6,4.5 µM,C[C@@H](NC(=O)c1ccc(COc2cccnc2)nc1)C1CCCCC1 [drawing 107]
7,> 10 µM,O=C(NC1CCCCC1)c1ccc(COc2cc(F)cc(F)c2)nc1
8,3.31 µM,CC[C@@H](C)NC(=O)c1ccc(COc2cccc(F)c2)nc1
9,4.68 µM,O=C(NC1CCC1)c1ccc(COc2ccccc2)nc1
10,0.158 µM,CC(C)[C@@H](C)NC(=O)c1ccc(COc2cccc(F)c2)nc1
11,3.39 µM,O=C(NC1CCC1)c1ccc(COc2cc(F)cc(F)c2)nc1
12,> 10 µM,O=C(NC1CCc2ccccc21)c1ccc(COc2ccccc2)nc1 (stereo not drawn) [drawing 113]
13,0.501 µM,O=C(Nc1ccc(F)cc1F)c1ccc(COc2ccccc2)nc1
14,> 10 µM,O=C(NCC1CC1)c1ccc(COc2ccccc2)nc1
15,0.575 µM,O=C(NCC1CCCCC1)c1ccc(COc2ccccc2)nc1
16,> 10 µM,O=C(Nc1ncccc1F)c1ccc(COc2ccccc2)nc1
17,> 10 µM,CC(C)(C)CCNC(=O)c1ccc(COc2cc(F)cc(C#N)c2)nc1
18,> 10 µM,O=C(Nc1nncs1)c1ccc(COc2ccccc2)nc1
19,1.51 µM,O=C(Nc1ccc(F)cn1)c1ccc(COc2ccccc2)nc1
20,> 10 µM,O=C(Nc1cccc(F)c1)c1ccc(COc2ccccc2)nc1
21,3.4 µM,COc1ccccc1OCc1ccc(C(=O)N[C@H](C)C2CCCCC2)cn1
22,> 10 µM,O=C(Nc1nccs1)c1ccc(COc2cccc(F)c2)nc1
23,> 10 µM,O=C(N[C@H](C1CC1)C(F)(F)F)c1ccc(COc2cccc(F)c2)nc1

# Same assay, conditions: S configuration enantiomer; read-out: mGluR5 potentiator EC50
row,EC50,SMILES
1,> 10 µM,"C[C@H](NC(=O)c1ccc(COc2cccc(F)c2)nc1)C1CCCCC1 [Example 11b, (S)-N-(1-cyclohexylethyl)-6-((3-fluorophenoxy)methyl)nicotinamide]"
